According to patent US6953786B2, “Compositions comprising plant-derived polyphenolic compounds and inhibitors of reactive oxygen species and methods of using thereof” (The Regents of the University of California, priority 2002, dated 2005):

What was measured:
NF-κB = NF-κB DNA binding activity (EMSA); format: cell-based, rat; conditions: BSp73AS, 6 hours; polyphenols 100 μM, MG-132 20 μM
Method: In order to determine the role of activated NF-κB in the regulation of apoptosis caused by the polyphenolic compound, the following assay was conducted. BSp73AS cells were cultured for 6 hours and Mia PACA-2 cells were cultured in the absence of serum or growth factors for 24 hours in the absence (controls) or presence of rutin, quercetin, trans-resveratrol, or genistein, each at 100 μM and 20 μM proteosome inhibitor MG-132. Nuclear proteins were isolated and analyzed for NF-κB DNA binding activity with electrophoretic mobility shift assay (EMSA). Specifically, aliquots of nuclear extracts with equal amount of protein, about 2 to about 10 μg, were mixed in 20 μl reactions with a buffer comprising 10 mM HEPES (pH 7.6), 50 mM KCl, 0.1 mM EDTA, 1 mM DTT, 10% (vol/vol) glycerol and 3 μg poly[d (I-C)]. After aliquots were equilibrated on ice for 5 minutes, binding reactions were stared by addition of 20-60,000 counts/min (20 fM) of ^32P-labeled DNA probes and allowed to proceed for 25-30 minutes at room temperature or up to 1 hour on ice. The oligonucleotide probe containing the κB binding motif (underlined) was annealed to the complementary oligonucleotide with a 5′-G overhang and end-labeled using Klenow DNA polymerase I. The samples were electrophoresed at room temperature in 0.5×TBE buffer (1×TBE 89 mM Tris base, 89 mM boric acid and 2 mM EDTA) on nondenaturing 4.5% polyacrylamide gel at 200 V. Gels were dried and directly analyzed in the PhosphorImager (Molecular Dynamics, Sunnyvale, Calif.). The experiment was repeated twice.

Mia PACA-2 cells [1] = test: Intracellular ROS (H2O2) by flow cytometry of DCF-labeled cells; format: cell-based, human; conditions: Mia PACA-2, 72 hours, serum or IGF-1; trans-resveratrol 100 μM, genistein 100 μM, DPI 15 μM, tiron 10 mM
Method: To determine the effect of serum in cancer cells, the following assay was conducted. Mia PACA-2 pancreatic cancer cells were cultured for 72 hours in the absence and presence of serum (15% FBS) or 100 ng/ml insulin growth factor-1 (IGF-1). Dichloroflyorescein diocetate (DCF-DA) was used to label the cells. Intracellular H2O2 was measured by flow cytometry of DCF-labeled cells. Intracellular ROS was measured using oxidation-sensitive cell-permeable fluorescent probe, dichlorofluorescein diacetate (DCF-DA) to measure H2O2. See Royall J A, and Ischiropoulos H. (1993) Arch. Biochem. Biophys. 302:348-355. To measure ROS, cells were collected after incubation, washed with PBS, and incubated for 15 minutes with […] DCF-DA. Samples were analyzed by flow cytometry. The amount of DCF-DA fluorescence correlated with the amount of ROS in the cells To determine the effects of serum, IGF-1, polyphenols and inhibitors of ROS on ROS production in cancer cells, the following assay was conducted. Mia PACA-2 cells were cultured for 72 hours in the presence of serum or IGF-1 with or without antioxidants, intracellular superoxide scavenger tiron (10 mM) or NADPH oxidase inhibitor, diphenylene iodonium (DPI, 15 μM) and trans-resveratrol (100 μM), genistein (100 μM), or a combination of polyphenolic compounds and antioxidants. Intracellular H2O2 was measured by flow cytometry of DCF-labeled cells. Mia PACA-2 cells and BSp73AS cells were cultured in Dulbecco's Modified Eagle's Medium supplemented with 10% heat inactivated FBS, penicillin G (100 U/ml) and streptomycin ([…]) in a humidified atmosphere comprising 5% (v/v) CO2. When the cells were 90% confluent they were detached, washed with alternating centrifugation and resuspension, plated and incubated in the same media with or without FBS or IGF-1 and with or without a given polyphenolic compound and with or without a given ROS inhibitor.

Mia PACA-2 cells [2] = test: Oligonucleosomal DNA fragmentation by cell death ELISA; format: cell-based, human; conditions: Mia PACA-2, 72 hours, with serum; DPI 15 μM, Tiron 10 mM, genistein 100 μM, trans-resveratrol 100 or 50 μM
Method: Mia PACA-2 cells were cultured for 72 hours in the presence of serum with or without 15 μM DPI, 10 mM Tiron, 100 μM genistein, 100 μM or 50 μM trans-resveratrol, or a combination thereof. Oligonucleosomal DNA fragmentation was measured in cell lysates by cell death ELISA.
Annexin staining was conducted as described above. Cells were collected, washed with PBS, and centrifuged for 10 min at 200×g. DNA fragmentation was determined using Cell Death Detection ELISA Plus kit (Roche Molecular Biochemicals).
To determine the role of caspases in the effects of combinations of agents on apoptosis, the effects of caspase-3 activity (DEVDase activity) as well as the effect of the broad spectrum caspase inhibitor, Z-VAD, on apoptosis was measured. Specifically, Mia PACA-2 cells were cultured for 72 hours in the presence of serum with or without 100 μM Z-VAD, 15 μM DPI, 100 μM trans-resveratrol, 100 μM genistein, a combination of trans-resveratrol and DPI, and a combination of genistein and DPI. DEVDase activity was measured in whole cell lysates with a fluorimetric assay. DNA fragmentation was measured in cell lysates by cell death ELISA.
In particular, Mia PACA-2 cells were cultured for 72 hours in the presence of serum with or without 50 μM trans-resveratrol (RS), 15 μM DPI, a combination of DPI and trans-resveratrol (RS+DPI), 10 μM MG-132 alone and in combination with RS, DPI, and RS+DPI. Internucleosomal DNA fragmentation was measured in cell lysates by cell death ELISA.

In the case of Oc1ccc(/C=C/c2cc(O)cc(O)c2)cc1 [trans-resveratrol], the “NF-κB activation (DNA binding)” value (NF-κB) is reported as “inhibit NF-κB activation”, the “ROS production (intracellular H2O2, DCF fluorescence)” value (Mia PACA-2 cells [1]) is reported as “small increase in ROS production” and the “oligonucleosomal DNA fragmentation (apoptosis)” value (Mia PACA-2 cells [2]) is reported as “either no or small effects”.
With O=c1c(-c2ccc(O)cc2)coc2cc(O)cc(O)c12 [genistein] the “ROS production (intracellular H2O2, DCF fluorescence)” value (Mia PACA-2 cells [1]) was “small increase in ROS production” and the “oligonucleosomal DNA fragmentation (apoptosis)” value (Mia PACA-2 cells [2]) was “either no or small effects”.
With O=c1c(O)c(-c2ccc(O)c(O)c2)oc2cc(O)cc(O)c12 [quercetin] the “NF-κB activation (DNA binding)” value (NF-κB) was “inhibit NF-κB activation”.
